# Assays:
# Her2 = test: Degradation of Her2 in BT-474 cells after treatment with compound (Western blot, Method 1); format: cell-based, human; conditions: for IC50: treated overnight in DMEM
# Procedure: Human high-Her2 breast carcinoma BT474 (HTB-20), SK-BR-3 (HTB-30) and MCF-7 breast carcinoma (HTB-22) from American Type Culture Collection, VA, USA were grown in Dulbecco's modified Eagle's medium with 4 mM L-glutamine and antibiotics (100 IU/ml penicillin and 100 ug/ml streptomycine; GibcoBRL). To obtain exponential cell growth, cells were trypsinized, counted and seeded at a cell density of 0.5×10^6 cells/ml regularly, every 3 days. All experiments were performed on day 1 after cell passage.
# BT-474 cells were treated with 0.5 μM, 2 μM, or 5 μM of 17AAG (a positive control) or 0.5 μM, 2 μM, or 5 μM of a compound of the invention overnight in DMEM medium. After treatment, each cytoplasmic sample was prepared from 1×10^6 cells by incubation of cell lysis buffer (#9803, cell Signaling Technology) on ice for 10 minutes. The resulting supernatant used as the cytosol fractions are dissolved with sample buffer for SDS-PAGE and run on a SDS-PAGE gel, blotted onto a nitrocellulose membrane by using semi-dry transfer. Non-specific binding to nitrocellulose was blocked with 5% skim milk in TBS with 0.5% Tween at room temperature for 1 hour, then probed with anti-Her2/ErB2 mAb (rabbit IgG, #2242, Cell Signaling) and anti-Tubulin (T9026, Sigma) as housekeeping control protein. HRP-conjugated goat anti-rabbit IgG (H+L) and HRP-conjugated horse anti-mouse IgG (H+L) were used as secondary Ab (#7074, #7076, Cell Signaling) and LumiGLO reagent, 20× Peroxide (#7003, Cell Signaling) was used for visualization.
# [1] = system: human multiple myeloma tumor cell line RPMI 8226; test: SCID mouse xenograft model, human multiple myeloma tumor cell line RPMI 8226; format: in vivo; conditions: RPMI 8226 xenograft in SCID mice
# Procedure: (§1) The human multiple myeloma cell line, RPMI 8226 (ATCC #CCL-155), and the canine osteosarcoma cell line, D-17 (ATCC #CCL-183), were obtained from the American Type Culture Collection (ATCC; Manassas, Va., USA). The cells were cultured in growth media prepared with RPMI Media 1640 (4.5 g/L glucose), 10% fetal bovine serum (FBS), 10 mM HEPES, 1% 100× Penicillin-Streptomycin, 1% 100× sodium pyruvate and 1% 100×MEM non-essential amino acids. FBS was obtained from ATCC and all other reagents were obtained from Invitrogen Corp. (Carlsbad, Calif., USA). Cells that had been cryopreserved in liquid nitrogen were rapidly thawed at 37° C. and transferred to a tissue culture flask containing growth media and then incubated at 37° C. in a 5% CO2 incubator. To expand the RPMI 8226 cell line, growth media was changed every 2-3 days and cultures were passaged 1:3 to 1:5 every 3-5 days. When the a 175 cm^2 flask reached approximately 20-40×10(6) total cells, the above passaging process was repeated until sufficient cells had been obtained for implantation into mice. […] The supernatant was aspirated and the cell pellet was resuspended in 10 mL of growth media and the cell number determined using a hemocytometer. […]
# (§2) Tumors were then permitted to develop in vivo until the majority reached 75-250 mm^3 in tumor volume, which required ˜4 weeks following implantation for the RPMI 8226 model and ˜9 weeks for the D-17 model. […] Tumor volumes (V) were calculated by caliper measurement of the width (W), length (L) and thickness (T) of tumors using the following formula: V=0.5236×(L×W×T). Animals were randomized into treatment groups so that the average tumor volumes of each group were similar at the start of dosing. % T/C values, as a measure of efficacy, were determined as follows: • (i) If ΔT>0: % T/C=(ΔT/ΔC)×100 • (ii) If ΔT<0: % T/C=(ΔT/T0)×100 • (iii) ΔT=Change in average tumor volume between start of dosing and the end of study. • (iv) ΔC=Change in average tumor volume between start of dosing and the end of study. • (v) T0=Average tumor volume at start of dosing. […]
# [2] = system: canine osteosarcoma tumor cell line D17; test: SCID mouse xenograft model, canine osteosarcoma tumor cell line D17; format: in vivo; conditions: D17 xenograft in SCID mice
# Procedure: as §1, §2
smiles,measurement,setting,value
"CC(C)c1cc(-c2nnc(O)n2-c2ccc3c(ccn3C)c2)c(O)cc1OP(=O)(O)O [Compound 3, 5-hydroxy-4-(5-hydroxy-4-(1-methyl-1H-indol-5-yl)-4H-1,2,4-triazol-3-yl)-2-isopropylphenyl dihydrogen phosphate]",IC50,Her2,88 nM
same,overt toxicity,[1]; 100 mg/kg,Overt toxicity was not observed
same,% T/C value,"[1]; 100 mg/kg body weight i.v., day 46",15%
same,average bodyweight change relative to the start of the study,"[1]; 100 mg/kg, day 46",2.1%
same,overt toxicity,[2]; 61 mg/kg,Overt toxicity was not observed
same,% T/C value,"[2]; 61 mg/kg body weight i.v., day 83",6%
same,average bodyweight change relative to the start of the study,"[2]; 61 mg/kg, day 83",−0.2%
"CC(C)c1cc(-c2nnc(O)n2-c2ccc3c(ccn3C)c2)c(O)cc1OP(=O)(O)O [Compound 4, sodium 5-hydroxy-4-(5-hydroxy-4-(1-methyl-1H-indol-5-yl)-4H-1,2,4-triazol-3-yl)-2-isopropylphenyl phosphate]",IC50,Her2; phosphate,182 nM
"CC(C)c1cc(-c2nnc(O)n2-c2ccc3c(c2)CCC3)c(O)cc1OP(=O)(O)O [Compound 1, 4-(4-(2,3-dihydro-1H-inden-5-yl)-5-hydroxy-4H-1,2,4-triazol-3-yl)-5-hydroxy-2-isopropylphenyl dihydrogen phosphate]",IC50,Her2,228 nM
"C=CCNC1=C2C[C@@H](C)C[C@H](OC)[C@H](O)[C@@H](C)/C=C(\C)[C@H](OC(N)=O)[C@@H](OC)/C=C\C=C(/C)C(=O)NC(=CC1=O)C2=O [Compound 17AAG, 17-allylamino-17-demethoxygeldanamycin, reference compound]",degradation of Her2,"Her2; 0.5 μM, positive control, results not shown",partial degradation
"CC(C)c1cc(-c2nnc(O)n2-c2ccc(N3CCOCC3)nc2)c(O)cc1OP(=O)(O)O [Compound 2, 5-hydroxy-4-(5-hydroxy-4-(6-morpholinopyridin-3-yl)-4H-1,2,4-triazol-3-yl)-2-isopropylphenyl dihydrogen phosphate]",IC50,Her2,90 nM

# From US9120745B2, “Triazole compounds that modualte HSP90 activity” (Synta Pharmaceuticals Corp., priority 2007, dated 2015)
